{
  "source": "paper PMC4660442",
  "about": "“Identification of potential inhibitors based on compound proposal contest: Tyrosine-protein kinase Yes as a target” (Scientific Reports, 2015)",
  "target": "T1, tyrosine-protein kinase Yes (Homo sapiens, UniProt P07947)",
  "T1 construct": "gene YES1",
  "T1 sequence (P07947 2-543)": "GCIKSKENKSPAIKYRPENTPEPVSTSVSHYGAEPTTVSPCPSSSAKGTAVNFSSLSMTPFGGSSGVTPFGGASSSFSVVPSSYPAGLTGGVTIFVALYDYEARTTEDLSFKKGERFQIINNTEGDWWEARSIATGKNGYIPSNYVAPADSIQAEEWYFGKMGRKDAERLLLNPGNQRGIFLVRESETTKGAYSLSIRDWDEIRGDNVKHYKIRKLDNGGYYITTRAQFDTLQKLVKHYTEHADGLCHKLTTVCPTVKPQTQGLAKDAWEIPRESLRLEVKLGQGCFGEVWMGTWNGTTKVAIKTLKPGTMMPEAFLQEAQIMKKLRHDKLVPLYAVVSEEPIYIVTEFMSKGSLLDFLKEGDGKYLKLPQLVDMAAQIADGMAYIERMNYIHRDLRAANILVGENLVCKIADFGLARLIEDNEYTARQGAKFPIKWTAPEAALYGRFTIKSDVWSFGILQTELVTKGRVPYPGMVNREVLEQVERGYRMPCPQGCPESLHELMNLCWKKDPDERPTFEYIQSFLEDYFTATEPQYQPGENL",
  "test": "reference inhibitor in ADP-Glo kinase assay, recombinant human Yes; no value given",
  "type": "biochemical",
  "data": [
    {"smiles": "CN[C@@H]1C[C@H]2O[C@@](C)([C@@H]1OC)n1c3ccccc3c3c4c(c5c6ccccc6n2c5c31)C(=O)NC4", "note": "[Staurosporine]", "values": [
      {"measurement": "reference inhibitor in ADP-Glo kinase assay, recombinant human Yes; no value pri", "result": "Staurosporine, a well-known pan-kinase inhibitor typically used as a reference in kinase assays, was selected as an active inhibitor for Yes"}
    ]}
  ]
}
